The values that follow come from ChEMBL document CHEMBL4828760, “Chalcogenides-incorporating carbonic anhydrase inhibitors concomitantly reverted oxaliplatin-induced neuropathy and enhanced antiproliferative action” (Eur J Med Chem, 2021).

By Ki is commonly meant a dissociation constant, usually derived from enzyme kinetics or from competition with a known ligand. The term IC50 denotes the point on the concentration scale where inhibition reaches its midpoint.

Test [1] addresses Carbonic anhydrase 9 (Homo sapiens, UniProt Q16790). The experiment in a line: Inhibition of recombinant human CA9 pre-incubated for 15 mins measured by phenol red dye based stopped flow CO2 hydration assay.
The test system of test [2] is Mus musculus. The test is described as follows: Anti-hypersensitive activity in CD-1 albino mouse model of oxaliplatin-induced neuropathic pain assessed as restoration of normal pain threshold at 30 to 100 mg/kg, po administered 14 days post oxaliplatin induction and measured upto 75 mins by cold plate test. The class given is functional, organism-based. To be noted: dose 30-100 mg/kg, time min <=75.

In test [3] the test system is Mus musculus. The experiment in a line: Anti-hypersensitive activity in CD-1 albino mouse model of oxaliplatin-induced neuropathic pain assessed as restoration of normal pain threshold at 10 mg/kg, po administered 14 days post oxaliplatin induction and measured upto 75 mins by cold plate test. The class given is functional, organism-based. To be noted: time min <=75.

The subject of test [4] is Mus musculus. The test is described as follows: Antiallodynic activity in po dosed CD-1 albino mouse model of oxaliplatin-induced neuropathic pain assessed as reduction in pain-related behavior administered 14 days post oxaliplatin induction and measured upto 75 mins by cold plate test. The class given is functional, organism-based. To be noted: dose 10-100 mg/kg, time 14.0 day.

For test [5], the system named is MCF7. The experiment in a line: Cytotoxicity against human MCF7 cells assessed as reduction in cell viability at 100 uM measured after 72 hrs under hypoxic condition in presence of doxorubicin by MTT assay. The class given is functional, cell-based. For orientation: Tetrazolium assays rely on reduction of a dye to a coloured formazan, in cell work by metabolically active cells.

For test [6], the system named is MCF7. The test is described as follows: Cytotoxicity against human MCF7 cells assessed as reduction in cell viability at 100 uM measured after 72 hrs under hypoxic condition in presence of cisplatin by MTT assay. The class given is functional, cell-based.
Test [7] concerns MCF7. The test is described as follows: Cytotoxicity against human MCF7 cells assessed as reduction in cell viability measured after 72 hrs under hypoxic condition by MTT assay. To be noted: MCF7, 72 h.
The subject of test [8] is Mus musculus. The test is described as follows: Anti-hypersensitive activity in CD-1 albino mouse model of oxaliplatin-induced neuropathic pain assessed as restoration of normal pain threshold at 100 mg/kg, po administered 14 days post oxaliplatin induction and measured upto 75 mins by cold plate test. The class given is functional, organism-based. The note with it: time min <=75.

Active and inactive are the calls of the source.

Take `C=CCOCC(O)C[Se]CC(O)C[Se]c1ccc(S(N)(=O)=O)cc1` (stereo unspecified): in test [1], the inhibition constant (Ki) is 157 nM.
As to `NS(=O)(=O)c1ccc([Se]CC(O)CSc2ccc(Br)cc2)cc1` (stereo unspecified), the inhibition constant (Ki) in test [1] was found to be 172 nM. Besides, the outcome in test [2] and in test [3] was Active. The Activity entry in test [4] is “Dose-Dependent Effect”.
For `CCCC[Se]CC(O)CSc1ccc(S(N)(=O)=O)cc1` (stereo unspecified), the Ki in test [1] came out at 164 nM. Also, the result in test [5] and in test [6] was Active.
For the compound `COc1cc([Te]CC(O)CSc2ccc(S(N)(=O)=O)cc2)cc(OC)c1OC` (stereo unspecified), the Ki in test [1] turned out to be 187 nM. Moreover, the result in test [5] and in test [6] was Active. Further, in test [7], the IC50 turned out to be 125000 nM.
On to `NS(=O)(=O)c1ccc(SCC(O)CSc2cccc(Br)c2)cc1` (stereo unspecified), for which, in test [1], the Ki was 135 nM.
In the case of `NS(=O)(=O)c1ccc(SCC(O)C[Se]c2ccccc2)cc1` (stereo unspecified), the Ki in test [1] was determined as 29.2 nM. For the same compound, the Activity result in test [4] was “Dose-Dependent Effect”. In test [8], the result was Active.
With `Cc1ccc([Te]CC(O)C[Se]c2ccc(S(N)(=O)=O)cc2)cc1` (stereo unspecified), the Ki in test [1] was found to be 152 nM.
Still for that read-out and setting: the result for `NS(=O)(=O)c1ccc(SCC(O)CSc2ccccc2Br)cc1` (stereo unspecified) reads 175 nM; that for `Cc1ccccc1[Se]CC(O)C[Se]c1ccc(S(N)(=O)=O)cc1` (stereo unspecified), 29.4 nM; that for `CC(O)CSCC(O)C[Se]c1ccc(S(N)(=O)=O)cc1` (stereo unspecified), 275 nM.
Take `NS(=O)(=O)c1ccc([Se]CC(O)C[Se]c2ccccc2)cc1` (stereo unspecified): the Ki in test [1] came to 84.5 nM. Moreover, the result in test [2] was Active. Moreover, the Activity entry in test [4] was “Dose-Dependent Effect”.
For the compound `NS(=O)(=O)c1ccc([Se]CC(O)CSc2ccccc2)cc1` (stereo unspecified), the Ki in test [1] came out at 288 nM. Also, in test [5], the outcome was Active. The outcome in test [6] was inactive.
Consider `NS(=O)(=O)c1ccc([Se]CC(O)CSc2ncccn2)cc1` (stereo unspecified), for which, in test [1], the Ki stood at 31 nM.
On to `COc1ccc([Se]CC(O)CSc2ccc(S(N)(=O)=O)cc2)cc1` (stereo unspecified), for which the Ki in test [1] amounted to 156 nM.
Still for that read-out and setting: in the case of `C=CCOCC(O)C[Se]CC(O)CSc1ccc(S(N)(=O)=O)cc1` (stereo unspecified) it was 241 nM; in that of `CCCC[Se]CC(O)C[Se]c1ccc(S(N)(=O)=O)cc1` (stereo unspecified), 208 nM; in that of `Cc1ccc(S(=O)(=O)N[C@@H](C)CSCC(O)CSc2ccc(S(N)(=O)=O)cc2)cc1` (stereo partly specified), 193 nM.
